Patent US12404269B2, “Aminoquinazolinone and aminoisoquinolinone derivatives and application thereof” (ZHEJIANG UNIVERSITY, priority 2018, dated 2025)

Assays:
PI3Kα = target: T1, PI3Kα (Homo sapiens, UniProt P42336); assay: PI3Kα molecular activity test (ADP-GLO); format: biochemical; conditions: for Selectivity (PI3Kδ IC50/PI3KαIC50): PI3Kδ IC50/PI3Kα IC50; for IC50: recombinant protein, 100 μM ATP, 2 hours at room temperature
T1 construct: purchased Carna Bioscience
Method: (§1) Instrument: ELISA Reader Envision™ (PerkinElmer, USA)
(§2) Materials: Human recombinant PI3K and PI3Kδ proteins, purchased from Carna Bioscience; ADP-GLO kit, purchased from Promega.
(§3) Take the PI3Kα Molecular Activity Test as an Example to Describe the Text Method of the PI3K Subtypes
(§4) PI3K-α recombinant protein and substrate ATP were diluted with kinase reaction buffer (50 mM Tris-HCl, pH 7.4, 2.1 mM DTT, 0.05% Tween-20, 10 mM MgCl2). […] The specific reaction system was 2% of DMSO, 0.8 ng/μL PI3K-α, and 100 μM ATP, the positive compound control groups and control wells were set, and there were 3 multiple-wells for each concentration of each sample. After incubating for 2 hours at room temperature, ADP-GLO Reagent and Kinase Detection Reagent were added respectively, and then Envision™ was used to detect the […] readings. The activity rate of the samples were calculated by the sample readings, and the calculation formula was: activity rate=(ODcompound−ODcontrol)/(ODDMSO−ODcontro) ×100%.

PI3Kδ = target: T2, PI3Kδ (Homo sapiens, UniProt O00329); assay: PI3Kδ molecular activity test (ADP-GLO); format: biochemical; conditions: recombinant protein
T2 construct: purchased Carna Bioscience
T2 sequence (O00329 whole entry): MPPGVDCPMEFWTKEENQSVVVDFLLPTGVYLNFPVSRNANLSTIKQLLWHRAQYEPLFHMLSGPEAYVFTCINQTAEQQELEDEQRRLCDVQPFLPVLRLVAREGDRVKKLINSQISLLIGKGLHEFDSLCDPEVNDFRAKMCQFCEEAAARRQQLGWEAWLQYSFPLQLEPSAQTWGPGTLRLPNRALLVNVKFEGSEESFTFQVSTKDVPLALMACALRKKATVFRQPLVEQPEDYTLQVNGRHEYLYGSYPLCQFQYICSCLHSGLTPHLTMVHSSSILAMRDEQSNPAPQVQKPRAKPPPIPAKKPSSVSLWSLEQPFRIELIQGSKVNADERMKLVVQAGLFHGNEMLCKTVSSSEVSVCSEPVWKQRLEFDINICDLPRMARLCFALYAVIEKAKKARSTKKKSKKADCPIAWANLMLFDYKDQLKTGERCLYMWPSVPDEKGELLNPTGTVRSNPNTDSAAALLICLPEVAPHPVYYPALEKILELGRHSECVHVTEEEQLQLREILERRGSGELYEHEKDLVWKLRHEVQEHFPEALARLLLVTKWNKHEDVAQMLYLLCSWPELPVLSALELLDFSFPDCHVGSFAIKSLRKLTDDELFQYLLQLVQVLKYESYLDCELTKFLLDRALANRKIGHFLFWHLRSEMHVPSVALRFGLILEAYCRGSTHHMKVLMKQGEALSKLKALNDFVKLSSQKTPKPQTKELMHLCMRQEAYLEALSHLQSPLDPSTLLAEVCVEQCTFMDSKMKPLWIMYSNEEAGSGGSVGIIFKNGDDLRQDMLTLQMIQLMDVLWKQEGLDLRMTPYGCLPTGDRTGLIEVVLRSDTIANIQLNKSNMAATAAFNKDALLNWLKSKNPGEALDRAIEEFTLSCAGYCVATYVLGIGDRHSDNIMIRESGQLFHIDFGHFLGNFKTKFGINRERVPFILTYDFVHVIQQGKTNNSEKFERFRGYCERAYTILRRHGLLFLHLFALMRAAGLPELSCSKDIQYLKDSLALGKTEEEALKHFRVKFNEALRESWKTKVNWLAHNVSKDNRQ
T2 sequence (P27986 whole entry partner): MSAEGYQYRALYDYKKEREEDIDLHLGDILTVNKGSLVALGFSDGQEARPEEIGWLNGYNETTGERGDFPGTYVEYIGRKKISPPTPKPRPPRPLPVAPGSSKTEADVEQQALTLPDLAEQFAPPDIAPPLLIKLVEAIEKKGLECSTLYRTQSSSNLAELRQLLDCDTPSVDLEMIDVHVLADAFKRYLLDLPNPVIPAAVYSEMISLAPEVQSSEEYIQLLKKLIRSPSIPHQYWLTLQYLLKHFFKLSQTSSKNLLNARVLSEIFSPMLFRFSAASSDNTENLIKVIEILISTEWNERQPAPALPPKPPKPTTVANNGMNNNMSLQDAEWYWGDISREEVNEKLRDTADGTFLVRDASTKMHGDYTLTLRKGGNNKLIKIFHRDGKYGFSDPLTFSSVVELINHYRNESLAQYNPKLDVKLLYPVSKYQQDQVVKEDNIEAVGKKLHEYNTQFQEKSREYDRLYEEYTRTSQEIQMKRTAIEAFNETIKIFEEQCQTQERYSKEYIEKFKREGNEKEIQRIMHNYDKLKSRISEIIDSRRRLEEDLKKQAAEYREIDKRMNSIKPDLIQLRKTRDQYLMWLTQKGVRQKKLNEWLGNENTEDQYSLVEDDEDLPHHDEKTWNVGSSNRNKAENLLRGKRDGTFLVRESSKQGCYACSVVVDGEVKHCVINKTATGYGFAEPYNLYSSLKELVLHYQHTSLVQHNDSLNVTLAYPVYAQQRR
Method: as §1, §2, §3, §4

SW48 (PIK3CA mut) = assay: Tumor cell proliferation, CCK8 method, SW48; format: cell-based; conditions: Homo sapiens; CCK8, SW48; read-out: SW48 (PIK3CA mut) proliferation IC50
Method: (§5) The IC50 value was calculated using Graphpad Prism V5.0 software.

KPL4 (PIK3CA mut) = assay: Tumor cell proliferation, CCK8 method, KPL4; format: cell-based; conditions: CCK8, KPL4; read-out: KPL4 (PIK3CA mut) proliferation IC50
Method: as §5

MCF7 (PIK3CA mut) = assay: Tumor cell proliferation, CCK8 method, MCF7; format: cell-based, human; conditions: Homo sapiens; CCK8, MCF7; read-out: MCF7 (PIK3CA mut) proliferation IC50
Method: as §5

ZR-75-1 (PTEN loss) = assay: Tumor cell proliferation, CCK8 method, ZR-75-1; format: cell-based; conditions: Homo sapiens; CCK8, ZR-75-1
Method: as §5

T1 sequence (P42336 whole entry): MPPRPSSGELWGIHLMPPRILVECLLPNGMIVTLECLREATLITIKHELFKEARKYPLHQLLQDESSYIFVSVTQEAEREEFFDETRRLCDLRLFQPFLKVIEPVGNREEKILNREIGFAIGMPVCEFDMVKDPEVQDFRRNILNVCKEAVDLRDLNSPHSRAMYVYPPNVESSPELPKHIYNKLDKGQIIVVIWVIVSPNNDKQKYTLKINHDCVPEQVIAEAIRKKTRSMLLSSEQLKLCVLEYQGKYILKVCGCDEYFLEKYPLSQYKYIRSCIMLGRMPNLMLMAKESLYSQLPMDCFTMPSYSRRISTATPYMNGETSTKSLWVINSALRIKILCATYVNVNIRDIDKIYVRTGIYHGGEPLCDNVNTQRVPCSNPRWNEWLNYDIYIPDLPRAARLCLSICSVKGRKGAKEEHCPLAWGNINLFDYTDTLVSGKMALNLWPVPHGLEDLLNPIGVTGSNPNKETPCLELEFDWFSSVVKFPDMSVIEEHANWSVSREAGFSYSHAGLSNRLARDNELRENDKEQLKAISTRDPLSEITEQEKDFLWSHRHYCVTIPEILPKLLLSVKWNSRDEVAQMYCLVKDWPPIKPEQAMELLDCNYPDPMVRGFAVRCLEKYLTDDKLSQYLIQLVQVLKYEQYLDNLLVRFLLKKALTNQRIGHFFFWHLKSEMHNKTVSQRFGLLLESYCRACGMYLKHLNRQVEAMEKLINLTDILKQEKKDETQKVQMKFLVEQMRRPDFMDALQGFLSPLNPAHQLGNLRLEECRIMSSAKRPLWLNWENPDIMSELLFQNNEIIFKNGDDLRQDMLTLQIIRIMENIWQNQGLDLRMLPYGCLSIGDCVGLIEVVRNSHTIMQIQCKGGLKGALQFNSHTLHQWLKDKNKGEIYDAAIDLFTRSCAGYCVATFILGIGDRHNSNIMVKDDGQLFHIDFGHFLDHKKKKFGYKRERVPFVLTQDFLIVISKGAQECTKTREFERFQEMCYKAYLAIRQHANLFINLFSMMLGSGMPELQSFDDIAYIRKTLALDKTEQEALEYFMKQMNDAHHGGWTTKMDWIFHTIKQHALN
T1 sequence (P27986 whole entry partner): as the sequence (P27986 whole entry partner) above

Compound | Selectivity (PI3Kδ IC50/PI3KαIC50) (PI3Kα) | IC50 (PI3Kα) [nM] | IC50 (PI3Kδ) [nM] | IC50 (SW48 (PIK3CA mut)) [nM] | IC50 (KPL4 (PIK3CA mut)) [nM] | IC50 (MCF7 (PIK3CA mut)) [nM] | IC50 (ZR-75-1 (PTEN loss)) [nM]
COc1c(O)ccc2c(=O)n(CC(F)(F)F)c(NC(=O)c3cnc(N)nc3)nc12 [7e, 2-amino-N-(3-trifluoroethyl-7-hydroxy-8-methoxy-4-oxo-3,4-dihydroquinazolin-2-yl) pyrimidine-5-carboxamide] | I (“I” represents <5 times) | 20 to 200 | 20 to 200 |  |  |  | 
COc1c(O)ccc2c(=O)n(CC(F)F)c(NC(=O)c3cnc(N)nc3)nc12 [7f, 2-amino-N-(3-difluoroethyl-7-hydroxy-8-methoxy-4-oxo-3,4-dihydroquinazolin-2-yl) pyrimidine-5-carboxamide] | I (“I” represents <5 times) | 20 to 200 | 20 to 200 |  |  |  | 
CCn1c(NC(=O)c2cncnc2)nc2c(OC)c(OCCCN3CCOCC3)ccc2c1=O [8b-14] | II (“II” represents 5-10 times) | 20 to 200 | < 20 |  |  |  | 
CCn1c(NC(=O)c2cnc(N)nc2)cc2c(OC)c(OCCC(N)=O)ccc2c1=O [8b′-3] | III (“III” represents >10 times) | < 20 | 20 to 200 |  |  |  | 
COc1c(OCC(N)=O)ccc2c(=O)n(C(C)C)c(NC(=O)c3cnc(N)nc3)nc12 [8c-2] | I (“I” represents <5 times) | 20 to 200 | 20 to 200 |  |  |  | 
COc1c(OCCC(N)=O)ccc2c(=O)n(C(C)C)c(NC(=O)c3cnc(N)nc3)nc12 [8c-3] | I (“I” represents <5 times) | 20 to 200 | 20 to 200 |  |  |  | 
COc1c(OCC(N)=O)ccc2c(=O)n(C3CC3)c(NC(=O)c3cnc(N)nc3)nc12 [8d-2] | I (“I” represents <5 times) | 20 to 200 | 20 to 200 |  |  |  | 
COc1c(OCCCN2CCOCC2)ccc2c(=O)n(CC(F)F)c(NC(=O)c3cnc(N)nc3)nc12 [8f-1] |  |  |  | 20 to 200 | 20 to 200 | < 20 | 200 to 1000
CCn1c(NC(=O)c2cnc(N)nc2)nc2c(OC(F)F)c(OCCCN3CCOCC3)ccc2c1=O [8g-1] |  |  |  | 20 to 200 | 20 to 200 | < 20 | 200 to 1000
Cn1c(NC(=O)c2cnc(N)nc2)cc2c3c(ccc2c1=O)OCCO3 [14a′-2] | II (“II” represents 5-10 times) | < 20 | 20 to 200 |  |  |  | 
Cn1c(NC(=O)c2cnc(N)nc2)cc2c3c(ccc2c1=O)OCCCCO3 [14a′-4] | II (“II” represents 5-10 times) | < 20 | 20 to 200 |  |  |  | 
Cn1c(NC(=O)c2cnc(N)nc2)cc2c3c(ccc2c1=O)OCCOCCO3 [14a′-5] | II (“II” represents 5-10 times) | < 20 | 20 to 200 |  |  |  | 
Cn1c(NC(=O)c2cnc(N)nc2)cc2c3c(ccc2c1=O)OCCOCCOCCO3 [14a′-6] | II (“II” represents 5-10 times) | < 20 | 20 to 200 |  |  |  | 
Cn1c(NC(=O)c2cnc(N)nc2)cc2c3c(ccc2c1=O)OCCOCCOCCOCCO3 [14a′-7] | II (“II” represents 5-10 times) | < 20 | 20 to 200 |  |  |  | 
CCn1c(NC(=O)c2cnc(N)nc2)cc2c3c(ccc2c1=O)OCCO3 [14b′-2] | I (“I” represents <5 times) | < 20 | < 20 |  |  |  | 
CCn1c(NC(=O)c2cnc(N)nc2)cc2c3c(ccc2c1=O)OCCCCO3 [14b′-4] | I (“I” represents <5 times) | 20 to 200 | 20 to 200 |  |  |  | 
Cc1nc(NC(=O)N2CCC[C@H]2C(N)=O)sc1-c1ccnc(C(C)(C)C(F)(F)F)c1 [Alpelisib, reference compound] |  |  |  | 20 to 200 | 20 to 200 | < 20 | 20 to 200

Results, then the compound that gave them:

Selectivity (PI3Kδ IC50/PI3KαIC50) (PI3Kα) | IC50 (PI3Kα) [nM] | IC50 (PI3Kδ) [nM] | IC50 (SW48 (PIK3CA mut)) [nM] | IC50 (KPL4 (PIK3CA mut)) [nM] | IC50 (MCF7 (PIK3CA mut)) [nM] | IC50 (ZR-75-1 (PTEN loss)) [nM] | Compound
III (“III” represents >10 times) | < 20 | 20 to 200 |  |  |  |  | COc1c(O)ccc2c(=O)n(C)c(NC(=O)c3cnc(N)nc3)nc12 [7a, 2-Amino-N-(8-methoxy-3-methyl-7-hydroxy-4-oxo-3,4-dihydroquinazolinone-2-yl) pyrimidine-5-carboxamide]
II (“II” represents 5-10 times) | < 20 | 20 to 200 | < 20 | 20 to 200 | < 20 | 20 to 200 | CCn1c(NC(=O)c2cnc(N)nc2)nc2c(OC)c(O)ccc2c1=O [7b, 2-amino-N-(3-ethyl-7-hydroxy-8-methoxy-4-oxo-3 ,4-dihydroquinazolin-2-yl) pyrimidine-5-carboxamide]
III (“III” represents >10 times) | < 20 | 20 to 200 | < 20 | < 20 | < 20 | < 20 | COc1c(OCCC(N)=O)ccc2c(=O)n(C)c(NC(=O)c3cnc(N)nc3)nc12 [8a-3]
II (“II” represents 5-10 times) | < 20 | 20 to 200 |  |  |  |  | CNC(=O)COc1ccc2c(=O)n(C)c(NC(=O)c3cnc(N)nc3)nc2c1OC [8a-4]
II (“II” represents 5-10 times) | < 20 | 20 to 200 |  |  |  |  | COc1c(OCC(=O)N(C)C)ccc2c(=O)n(C)c(NC(=O)c3cnc(N)nc3)nc12 [8a-5]
II (“II” represents 5-10 times) | < 20 | 20 to 200 |  |  |  |  | COc1c(OCC(=O)N2CCOCC2)ccc2c(=O)n(C)c(NC(=O)c3cnc(N)nc3)nc12 [8a-8]
III (“III” represents >10 times) | < 20 | 20 to 200 |  |  |  |  | COc1c(OCCCC(N)=O)ccc2c(=O)n(C)c(NC(=O)c3cnc(N)nc3)nc12 [8a-9]
II (“II” represents 5-10 times) | < 20 | 20 to 200 |  |  |  |  | COc1c(OCCCN2CCOCC2)ccc2c(=O)n(C)c(NC(=O)c3cncnc3)nc12 [8a-14]
II (“II” represents 5-10 times) | < 20 | 20 to 200 |  |  |  |  | COc1c(OCCCN2CCOCC2)ccc2c(=O)n(C)c(NC(=O)c3ccnnc3)nc12 [8a-15]
II (“II” represents 5-10 times) | < 20 | 20 to 200 |  |  |  |  | COc1c(OCCCN2CCOCC2)ccc2c(=O)n(C)c(NC(=O)c3ccc(N)nc3)nc12 [8a-16]
III (“III” represents >10 times) | < 20 | 200 to 1000 | 20 to 200 | 20 to 200 | < 20 | 200 to 1000 | CCOC(=O)COc1ccc2c(=O)n(C)c(NC(=O)c3cnc(N)nc3)nc2c1OC [8a-29]
III (“III” represents >10 times) | < 20 | 20 to 200 |  |  |  |  | COc1c(OCCCN2CCOCC2)ccc2c(=O)n(C)c(NC(=O)c3cncnc3)cc12 [8a′-8]
III (“III” represents >10 times) | < 20 | 20 to 200 |  |  |  |  | COc1c(OCCCN2CCOCC2)ccc2c(=O)n(C)c(NC(=O)c3ccnnc3)cc12 [8a′-9]
III (“III” represents >10 times) | < 20 | 20 to 200 |  |  |  |  | CCn1c(NC(=O)c2cnc(N)nc2)nc2c(OC)c(OCCC(N)=O)ccc2c1=O [8b-3]
